Measured values from patent US20240116857A1 (St. Louis University, priority 2022, published 2024).

System: E. coli BW25113
Assay: MIC, 2-fold broth dilution, E. coli BW25113
Assay type: cell-based, Escherichia coli
Settings: Escherichia coli; E. coli BW25113; asterisk in column 1-10; read-out: MIC, μM 1-10

| Structure (SMILES) | MIC |
| --- | --- |
| C[n+]1ccc(Nc2ccc(NC(=O)c3ccc(Cc4ccc(C(=O)Nc5ccc(Nc6cc[n+](C)cc6)cc5)cc4)cc3)cc2)cc1 [Example 52, 4,4′-((((4,4′-methylenebis(benzoyl))bis(azanediyl))bis(4,1-phenylene))bis(azanediyl))bis(1-methylpyridin-1-ium)] | 1 to 10 µM |
| C[n+]1ccc(-c2ccc(NC(=O)c3ccc(C(=O)Nc4ccc(-c5cc[n+](C)cc5)cc4)cc3)cc2)cc1 [Example 56] | 1 to 10 µM |
| C[n+]1ccc(Nc2ccc(NC(=O)c3ccc(C(=O)Nc4ccc(Nc5cc[n+](C)cc5)cc4)c(F)c3)cc2)cc1 [Example 58, 4,4′-((((2-fluoroterephthaloyl)bis(azanediyl))bis(4,1-phenylene))bis(azanediyl))bis(1-methylpyridin-1-ium)] | 1 to 10 µM |
| C[N+](C)(C)c1ccc(NC(=O)c2ccc(-c3ccc(C(=O)Nc4ccc([N+](C)(C)C)c(F)c4)cc3)cc2)cc1F [Example 77, 2-fluoro-4-(4′-{[3-fluoro-4-(trimethylazaniumyl)phenyl]carbamoyl}-[1,1′-biphenyl]-4-amido)-N,N,N-trimethylanilinium] | 1 to 10 µM |
| C[n+]1ccc(Nc2ccc(NC(=O)c3ccc(C(=O)Nc4ccc(Nc5cc[n+](C)cc5)cc4)c(Br)c3)cc2)cc1 [Example 87, 4,4′-((((2-bromoterephthaloyl)bis(azanediyl))bis(4,1-phenylene))bis(azanediyl))bis(1-methylpyridin-1-ium)] | 1 to 10 µM |

Same assay, conditions: Escherichia coli; E. coli BW25113; asterisk in column 10-50; read-out: MIC, μM 10-50

| Structure (SMILES) | MIC |
| --- | --- |
| Cc1c[n+](C)ccc1NC(=O)c1ccc(C(=O)Nc2ccc(Nc3cc[n+](C)cc3)cc2)cc1 [Example 55, 1,3-dimethyl-4-(4-((4-((1-methylpyridin-1-ium-4-yl)amino)phenyl)carbamoyl)benzamido)pyridin-1-ium] | 10 to 50 µM |
| C[n+]1ccc(NC(=O)c2ccc(C(=O)Nc3ccc(Nc4cc[n+](C)cc4)cc3)cc2)cc1 [Example 62, 1-methyl-4-(4-((4-((1-methylpyridin-1-ium-4-yl)amino)phenyl)carbamoyl)benzamido)pyridin-1-ium] | 10 to 50 µM |
| C[n+]1ccc(NC(=O)c2ccc(C(=O)Nc3ccc(Nc4cc[n+](C)cc4)c(F)c3)cc2)cc1 [Example 66, 1-methyl-4-(4-((3-fluoro-4-((1-methylpyridin-1-ium-4-yl)amino)phenyl)carbamoyl)benzamido)pyridin-1-ium] | 10 to 50 µM |
| C[n+]1ccc(Oc2ccc(NC(=O)c3ccc(C(=O)Nc4ccc(Oc5cc[n+](C)cc5)cc4)c([N+](=O)[O-])c3)cc2)cc1 [Example 84, 4,4′-((((2-nitroterephthaloyl)bis(azanediyl))bis(4,1-phenylene))bis(oxy))bis(1-methylpyridin-1-ium)] | 10 to 50 µM |
| C[N+](C)(C)c1ccc(NC(=O)c2ccc(-c3ccc(C(=O)Nc4ccc([N+](C)(C)C)c(Br)c4)cc3)cc2)cc1Br [Example 86, 4,4′-(([1,1′-biphenyl]-4,4′-dicarbonyl)bis(azanediyl))bis(2-bromo-N,N,N-trimethylbenzenaminium)] | 10 to 50 µM |
| C[n+]1ccc(Oc2ccc(NC(=O)c3ccc(C(=O)Nc4ccc(Oc5cc[n+](C)cc5)cc4)c(N)c3)cc2)cc1 [Example 89, 4,4′-((((2-aminoterephthaloyl)bis(azanediyl))bis(4,1-phenylene))bis(oxy))bis(1-methylpyridin-1-ium)] | 10 to 50 µM |

Same assay, conditions: Escherichia coli; E. coli BW25113; asterisk in column >50; read-out: MIC, μM >50

| Structure (SMILES) | MIC |
| --- | --- |
| CN1CCC(Nc2ccc(NC(=O)c3ccc(C(=O)Nc4ccc(NC5CCN(C)CC5)cc4)cc3)cc2)CC1 [Example 50, N^1,N^4-bis(4-((1-methylpiperidin-4-yl)amino)phenyl)terephthalamide] | > 50 µM |
| O=C(Nc1ccc(Nc2ccncc2)cc1)c1ccc(C(=O)Nc2ccc(Nc3ccncc3)cc2)c(F)c1 [Example 51, 2-fluoro-N^1,N^4-bis(4-(pyridin-4-ylamino)phenyl)terephthalamide] | > 50 µM |
| C[N+](C)(C)c1ccc(NC(=O)c2ccc(Cc3ccc(C(=O)Nc4ccc([N+](C)(C)C)cc4)cc3)cc2)cc1 [Example 53] | > 50 µM |
| O=C(Nc1ccc(-c2ccncc2)cc1)c1ccc(C(=O)Nc2ccc(-c3ccncc3)cc2)cc1 [Example 54, N^1,N^4-bis(4-(pyridin-4-yl)phenyl)terephthalamide] | > 50 µM |
| C[n+]1ccc(-c2ccc(NC(=O)c3ccc(-c4ccc(C(=O)Nc5ccc(-c6cc[n+](C)cc6)cc5)cc4)cc3)cc2)cc1 [Example 59, 4,4′-((([1,1′-biphenyl]-4,4′-dicarbonyl)bis(azanediyl))bis(4,1-phenylene))bis(1-methylpyridin-1-ium)] | > 50 µM |
| O=C(Nc1ccc(Nc2ccncc2)cc1)[C@H]1CC[C@H](C(=O)Nc2ccc(Nc3ccncc3)cc2)CC1 [Example 60, (E)-N^1,N^4-bis(4-(pyridin-4-ylamino)phenyl)cyclohexane-1,4-dicarboxamide] | > 50 µM |
| C[N+](C)(C)C1CCC(NC(=O)c2ccc(-c3ccc(C(=O)NC4CCC([N+](C)(C)C)CC4)cc3)cc2)CC1 (stereo not shown) [Example 61, 4,4′-(([1,1′-biphenyl]-4,4′-dicarbonyl)bis(azanediyl))bis(N,N,N-trimethylcyclohexan-1-aminium)] | > 50 µM |
| COc1cc(Nc2cc[n+](C)cc2)ccc1NC(=O)c1ccc(C(=O)Nc2cc[n+](C)cc2)cc1 [Example 63, 4-(4-((2-methoxy-4-((1-methylpyridin-1-ium-4-yl)amino)phenyl)carbamoyl)benzamido)-1-methylpyridin-1-ium] | > 50 µM |
| Cc1cc(NC(=O)c2ccc(C(=O)Nc3ccncc3)cc2)ccc1Nc1ccncc1 [Example 64, N^1-(3-methyl-4-(pyridin-4-ylamino)phenyl)-N^4-(pyridin-4-yl)terephthalamide] | > 50 µM |
| Cc1cc(Nc2cc[n+](C)cc2)ccc1NC(=O)c1ccc(C(=O)Nc2cc[n+](C)cc2)cc1 [Example 67, 1-methyl-4-(4-((2-methyl-4-((1-methylpyridin-1-ium-4-yl)amino)phenyl)carbamoyl)benzamido)pyridin-1-ium] | > 50 µM |
| O=C(Nc1ccc(Nc2ccncc2)cc1)c1ccc(C(=O)Nc2ccc(Nc3ccncc3)cc2)c(Br)c1 [Example 68, 2-bromo-N^1,N^4-bis(4-(pyridin-4-ylamino)phenyl)terephthalamide] | > 50 µM |
| C[n+]1ccc(Nc2ccc(NC(=O)C3CCC(C(=O)Nc4ccc(Nc5cc[n+](C)cc5)cc4)CC3)cc2)cc1 (stereo not shown) [Example 69, 4,4′-((((E)-cyclohexanedicarbonylbis(azanediyl))bis(4,1-phenylene))bis(azanediyl))bis(1-methylpyridin-1-ium)] | > 50 µM |
| CN(C)c1ccc(NS(=O)(=O)c2ccc(-c3ccc(S(=O)(=O)Nc4ccc(N(C)C)cc4)cc3)cc2)cc1 [Example 70, N^4, N^4′-bis(4-(dimethylamino)phenyl)-[1,1′-biphenyl]-4,4′-disulfonamide] | > 50 µM |
| C[N+](C)(C)c1ccc(NS(=O)(=O)c2ccc(-c3ccc(S(=O)(=O)Nc4ccc([N+](C)(C)C)cc4)cc3)cc2)cc1 [Example 71] | > 50 µM |
| CN(C)c1ccc(NC(=O)c2ccc(-c3ccc(C(=O)Nc4ccc(N(C)C)cc4)cn3)nc2)cc1 [Example 72, N^5,N^5′-bis(4-(dimethylamino)phenyl)-[2,2′-bipyridine]-5,5′-dicarboxamide] | > 50 µM |
| C[N+](C)(C)c1ccc(NC(=O)c2ccc(-c3ccc(C(=O)Nc4ccc([N+](C)(C)C)cc4)cn3)nc2)cc1 [Example 73, 4,4′-(([2,2′-bipyridine]-5,5′-dicarbonyl)bis(azanediyl))bis(N,N,N-trimethylbenzenaminium)] | > 50 µM |
| CN(C)c1ccc(NC(=O)c2ccc(-c3ccc(C(=O)Nc4ccc(N(C)C)c(C(F)(F)F)c4)cc3)cc2)cc1C(F)(F)F [Example 74, N^4,N^4′-bis(4-(dimethylamino)-3-(trifluoromethyl)phenyl)-[1,1′-biphenyl]-4,4′-dicarboxamide] | > 50 µM |
| CN(C)c1ccc(NC(=O)c2ccc(-c3ccc(C(=O)Nc4ccc(N(C)C)c(F)c4)cc3)cc2)cc1F [Example 75, N^4,N^4′-bis(4-(dimethylamino)-3-fluorophenyl)-[1,1′-biphenyl]-4,4′-dicarboxamide] | > 50 µM |
| CN(C)c1ccc(NC(=O)c2ccnc(-c3cc(C(=O)Nc4ccc(N(C)C)cc4)ccn3)c2)cc1 [Example 76, N^4,N^4′-bis(4-(dimethylamino)phenyl)-[2,2′-bipyridine]-4,4′-dicarboxamide] | > 50 µM |
| C[N+](C)(C)c1ccc(NC(=O)c2ccnc(-c3cc(C(=O)Nc4ccc([N+](C)(C)C)cc4)ccn3)c2)cc1 [Example 78, 4,4′-(([2,2′-bipyridine]-4,4′-dicarbonyl)bis(azanediyl))bis(N,N,N-trimethylbenzenaminium)] | > 50 µM |
| O=C(Nc1ccc(Nc2ccncc2)cc1)c1ccc(C(=O)Nc2ccc(Nc3ccncc3)cc2)nc1 [Example 79, N^2,N^5-bis(4-(pyridin-4-ylamino)phenyl)pyridine-2,5-dicarboxamide] | > 50 µM |
| CN(C)c1ccc(NC(=O)c2ccc(-c3ccc(C(=O)Nc4ccc(N(C)C)c(Br)c4)cc3)cc2)cc1Br [Example 80, N^4,N^4′-bis(3-bromo-4-(dimethylamino)phenyl)-[1,1′-biphenyl]-4,4′-dicarboxamide] | > 50 µM |
| O=C(Nc1ccc(-c2ccc(NC(=O)c3ccncc3)cc2)cc1)c1ccncc1 [Example 81, N,N′-([1,1′-biphenyl]-4,4′-diyl)diisonicotinamide] | > 50 µM |
| C[N+](C)(C)c1ccc(NC(=O)c2ccc(-c3ccc(C(=O)Nc4ccc([N+](C)(C)C)c(C(F)(F)F)c4)cc3)cc2)cc1C(F)(F)F [Example 82, 4,4′-(([1,1′-biphenyl]-4,4′-dicarbonyl)bis(azanediyl))bis(N,N,N-trimethyl-2-(trifluoromethyl)benzenaminium)] | > 50 µM |
| O=C(Nc1ccc(Oc2ccncc2)cc1)c1ccc(C(=O)Nc2ccc(Oc3ccncc3)cc2)c([N+](=O)[O-])c1 [Example 83, 2-nitro-N^1,N^4-bis(4-(pyridin-4-yloxy)phenyl)terephthalamide] | > 50 µM |
| C[n+]1ccc(C(=O)Nc2ccc(-c3ccc(NC(=O)c4cc[n+](C)cc4)cc3)cc2)cc1 [Example 85, 4,4′-(([1,1′-biphenyl]-4,4′-diylbis(azanediyl))bis(carbonyl))bis(1-methylpyridin-1-ium)] | > 50 µM |
